Counter-ions that a name gives are not always drawn.
Assays:
[1] = system: ptosis induced by tetrabenazine; assay: Ptosis induced by tetrabenazine; type: in vivo; conditions: for Ptosis score: tetrabenazine 40 mg/kg i.p., 3 hrs, Mean ± S.E., N 6; for effects of erythro-DOPS on combination use of a peripheral decarboxylase inhibitor: combination with erythro-DOPS
Description: L-threo-DOPS (100 mg/kg and 200 mg/kg) was intraperitoneally injected at the same time with the intraperitoneal injection of tetrabenazine (40 mg/kg) and at 1 hr. after the intraperitoneal injection of benserazide or carbidopa.
The score of ptosis was measured by the method of Fukushima et al. (Arch. Int. Pharmacodyn. Therp. 229 163 1977) at 3 hrs. after the injection of tetrabenazine.

[2] = system: aromatic L-amino acid decarboxylase; conditions: decarboxylation by aromatic L-amino acid decarboxylase; cited from earlier work
[3] = system: quantity of spontaneous movement of mice administered with tranylcypromine; assay: Spontaneous movement of mice administered with tranylcypromine; type: in vivo
Description: The same experimental system of measuring the quantity of spontaneous movement of mice as used in Experimental Example 1 was used in this Example.
In FIG. 3, the axis of ordinates indicates the quantity of spontaneous movement and the axis of abscissae indicates the lapse of time (minute) and the arrows indicate the time when administration was conducted.

[4] = system: Amine content in the brain; assay: Amine content in the brain of mice administered with erythro-DOPS; type: in vivo; conditions: for Dopamine content in the brain / Serotonin content in the brain / Noradrenaline (NA) content in the brain: mean of three mice ±SD
Description: PIH (50 mg/kg) was previously administered to mice and after lapse of 17 hours, physiological saline or DL-erythro-DOPS (200 mg/kg) was intraperitoneally injected to the mice.
Amine content in the brain was measured after a lapse of 30 minutes from the injection.
The content was expressed as ng/g wet weight and shown as mean value of the three mice±SD.

[5] = system: quantity of spontaneous movement of mice increased by administration of methamphetamine; assay: Spontaneous movement of mice with methamphetamine; type: in vivo
Description: The same experimental system of measuring spontaneous movement quantity of mice as used in Experimental Example 1 was employed in this Example.
In FIG. 2, the axis of ordinates indicates the quantity of spontaneous movement and the axis of abscissa indicates the time (minute) when the time at which the administration of methamphetamine (1.4 mg/kg) alone or methamphetamine with DL-erythro-DOPS (200 mg/kg) was carried out was taken as zero point.

[6] = system: quantity of spontaneous movement of mice; assay: Spontaneous movement of mice pretreated with PIH (Animex); type: in vivo
Description: Three mice as one group were put in a movement measuring box of Animex and quantity of spontaneous movements of the mice were measured at given intervals of time.
Thereafter, they gradually became calm and crouched after about 30-40 minutes resulting in much decrease in their spontaneous moving quantity. β-phenylisopropylhydrazine hydrochloride (Catron, trade name) (referred to as "PIH" hereinafter) which is a monoamine oxidase inhibitor (MAOI) was intraperitoneally administered to the mice in an amount of 50 mg/kg.
Separately, 200 mg/kg of DL-erythro-DOPS was intraperitoneally injected to the mice and the effects thereof were examined.
In FIG. 1 the axis of ordinates indicates the quantity of movement (counts/5 min.) and the axis of abscissae indicates the time (minute) from the beginning of measurement of the quantity of spontaneous movement which was after 30 minutes from administration of DL-erythro-DOPS.

[7] = animal experiments; U.S. Pat. No. 3,920,728; cited from earlier work
[8] = Acute oral toxicity (LD50); conditions: mouse, in vivo
harmaline induced tremor = conditions: Japanese Patent Publication No. 125630/1977; cited from earlier work
orthostatic hypotension = conditions: U.S. Pat. No. 4,330,558; cited from earlier work
[9] = system: freezing phenomenon in parkinson's disease; conditions: UK Patent Publication No. 2106388; cited from earlier work
[10] = major tranquilizers; cited from earlier work
[11] = system: Amine content in the brain; assay: Amine content in the brain of PIH administered mice; type: in vivo; conditions: PIH 50 mg/kg i.p., 17 hours, mean of three mice ±SD
Description: A physiological saline or PIH (50 mg/kg) was intraperitoneally injected to mice and content of amine in the brain was measured after 17 hours.
The measurement was substantially in accordance with the method of Ogasawara et al (J. Chromatography 180, 119). The content was expressed as ng/g wet weight and shown as mean value of the three mice ±SD.

mania = conditions: cited from earlier work
[12] = continuously in blood; cited from earlier work
[13] = DL-erythro-DOPS given 180 minutes after tranylcypromine
[14] = PIH 50 mg/kg 17 hours before + DL-erythro-DOPS 200 mg/kg i.p., 30 minutes
[15] = DL-erythro-DOPS 200 mg/kg i.p. together with methamphetamine 1.4 mg/kg
[16] = PIH 50 mg/kg + physiological saline, 30 minutes after injection
[17] = PIH 50 mg/kg i.p., 16 hours after administration

N[C@H](C(=O)O)[C@@H](O)c1ccc(O)c(O)c1 (racemic) [L-erythro-DOPS, L or DL-erythro-3-(3,4-dihydroxyphenyl)serine]
Ptosis score ([1]; 100 mg/kg i.p. alone): 2.0 ± 0.4
Ptosis score ([1]; 200 mg/kg i.p. alone): 2.3 ± 0.5
conversion to noradrenaline in vivo [2]: to d-NA

N[C@H](C(=O)O)[C@@H](O)c1ccc(O)c(O)c1 (relative stereo) [DL-erythro-DOPS, DL-erythro-3-(3,4-dihydroxyphenyl)serine]
quantity of movement [3, 13]: began to decrease
time after which the quantity of movement began to decrease [3, 13]: about 20 minutes
duration of decrease in quantity of movement ([3]; DL-erythro-DOPS given 180 minutes after tranylcypromine, then returned to original increased state): 30 to 90 min
Dopamine content in the brain [4, 14]: 895 ± 52 ng/g wet weight
Serotonin content in the brain [4, 14]: 821 ± 92 ng/g wet weight
Noradrenaline (NA) content in the brain ([4]; PIH 50 mg/kg 17 hours before + DL-erythro-DOPS 200 mg/kg i.p., 30 minutes, *: P <0.005): 1476 ± 105 ng/g wet weight
action of methamphetamine to increase the quantity of spontaneous movement [5, 15]: retrained
increase of the quantity of movement [5, 15]: not noticeable
quantity of spontaneous movement ([6]; DL-erythro-DOPS 200 mg/kg i.p., mice pretreated with PIH (50 mg/kg)): conspicuous decrease in the quantity of spontaneous movement

N[C@H](C(=O)O)[C@@H](O)c1ccc(O)c(O)c1 (relative stereo) [erythro-DOPS, erythro-3-(3,4-dihydroxyphenyl)serine]
ptosis induced by tetrabenazine ([1]; administration of erythro-DOPS): enhanced
antihypertensive or antidepressive effect [7]: has an antihypertensive or antidepressive effect
change of contents of amines in the brain (NA, dopamine, serotonin) ([4]; Experimental Examples 4 and 5): only NA significantly increases
Toxicity [8]: extremely low
LD50 ([8]; po): ≥ 5000 mg/kg
suppression of psychomotor excitement ([6]; summary of Experimental Examples 1 to 3): suppresses psychomotor excitement

N[C@H](C(=O)O)[C@H](O)c1ccc(O)c(O)c1 (relative stereo) [threo-DOPS]
effect on harmaline induced tremor (harmaline induced tremor): inhibitory effect
antihypertensive or antidepressive effect [7]: has an antihypertensive or antidepressive effect
treatment of orthostatic hypotension (orthostatic hypotension): clinically effective
treatment of freezing phenomenon in parkinson's disease [9]: clinically effective

N[C@@H]1C[C@H]1c1ccccc1 (relative stereo) [tranylcyromine]
spontaneous movement ([3]; 50 mg/kg i.p.): gradually increased
time to maximum spontaneous movement ([3]; 50 mg/kg i.p., after administration, then maintained): 120 min

CN(C)CCCN1c2ccccc2Sc2ccc(Cl)cc21 [Chloropromazine]
tranquilizing effects [10]: strong tranquilizing effects

N[C@H](C(=O)O)C(O)c1ccc(O)c(O)c1 (stereo partly drawn) [L-DOPS]
conversion to noradrenaline in vivo [2]: converted to noradrenaline

N[C@H](C(=O)O)[C@H](O)c1ccc(O)c(O)c1 [L-threo-DOPS]
conversion to noradrenaline in vivo [2]: converted to l-NA

CC(Cc1ccccc1)NN (stereo not drawn) [PIH, β-phenylisopropylhydrazine hydrochloride]
Dopamine content in the brain [4, 16]: 941 ± 56 ng/g wet weight
Noradrenaline (NA) content in the brain [4, 16]: 832 ± 88 ng/g wet weight
Serotonin content in the brain [4, 16]: 942 ± 133 ng/g wet weight
Dopamine content in the brain ([11]; **: P <0.05): 1026 ± 122 ng/g wet weight
Noradrenaline (NA) content in the brain ([11]; *: P <0.005): 1085 ± 79 ng/g wet weight
Serotonin content in the brain ([11]; *: P <0.005): 1260 ± 39 ng/g wet weight
quantity of spontaneous movement [6, 17]: tendencies of increase in the spontaneous movement quantity
time required before the mice became calm [6, 17]: increase in time required before the mice became calm

NC(CO)C(=O)NNCc1ccc(O)c(O)c1O (stereo not drawn) [benserazide]
effects of erythro-DOPS on combination use of a peripheral decarboxylase inhibitor [1]: significantly enhanced

NC(=O)N1c2ccccc2C=Cc2ccccc21 [carbamazepine]
antimanic effect (mania; human, in vivo): has an antimanic effect

C[C@@](Cc1ccc(O)c(O)c1)(NN)C(=O)O [carbidopa]
effects of erythro-DOPS on combination use of a peripheral decarboxylase inhibitor [1]: significantly enhanced

O=C(CCCN1CCC(O)(c2ccc(Cl)cc2)CC1)c1ccc(F)cc1 [haloperidol]
tranquilizing effects [10]: strong tranquilizing effects

COc1ccc2c(c1)N(C[C@H](C)CN(C)C)c1ccccc1S2 [levomepromazine]
tranquilizing effects [10]: strong tranquilizing effects

O=C(O)O [lithium carbonate]
time before a noticeable effect (mania; treatment with lithium carbonate): 3 to 8 days

CN[C@@H](C)Cc1ccccc1 [methamphetamine]
quantity of spontaneous movement ([5]; methamphetamine 1.4 mg/kg i.p.): abruptly increased
time to restoration to nearly the former state ([5]; methamphetamine 1.4 mg/kg i.p.): 2 h
time after which quantity of spontaneous movement began to decrease ([5]; methamphetamine 1.4 mg/kg i.p., from the injection): 50 min

lithium
lithium concentration in blood at which lithium poisoning will occur [12]: ≥ 2.0 mEq/l
